According to patent US8846656B2, “Tetrahydropyrido-pyridine and tetrahydropyrido-pyrimidine compounds and use thereof as C5a receptor modulators” (Novartis AG, priority 2011, dated 2014):

How the values were obtained:
human C5aR = human C5aR (Homo sapiens (Human), UniProt P21730); assay: FLIPR assay: inhibition of C5a-mediated calcium mobilization; assay type: cell-based; conditions: stable cell line over expressing human C5aR & Gα15, human C5a at EC50 (0.1-0.25 nM)
Experimental: Compounds were tested for their ability to inhibit C5a-mediated calcium mobilization using a stable cell line over expressing the human C5aR & the Gα15 protein on the FLIPR (Fluorescent Imaging Plate Reader) Tetra system. Cells were maintained in culture media containing DMEM (Dulbecco's Modified Eagle Medium) with 4.5 g/L glucose, 10% fetal bovine serum, 100 U/mL, 1× non-essential amino acid, and 250 μg/mL G418 (Geneticin). Prior to testing of compounds, cells were plated at 10,000 cells/well in clear bottom 384-well black plate, and incubated overnight at 37° C. with 5% CO2. On the day of experiment, culture media was removed, and replaced with assay buffer HBSS (Hanks' Balanced Salt Solution) with 20 mM HEPES (4-(2-hydroxyethyl)-1-piperazineethanesulfonic acid) and 0.1% BSA (bovine serum albumin) BSA containing calcium 5 dye (Molecular Devices) and 2.5 mM probenecid. After 1 hour incubation at 37° C., 5% CO2 for 60 min, cells were pre-incubated with compounds for 30 minutes at room temperature, in 1% DMSO (dimethyl sulfoxide).

CD11b = assay: Human whole blood CD11b up-regulation assay; assay type: cell-based; conditions: Homo sapiens, 2 nM human C5a, CD15+ granulocytes, read-out: hCD11b IC50
Experimental: Whole blood was collected in sodium heparin tubes and the assay started within 2 hours of the blood draw. The blood was incubated with compounds in 1% DMSO (dimethyl sulfoxide) at room temperature for 10 minutes with gentle rocking. 2 nM of human C5a was then added for 15 minutes at room temperature with gentle rocking. Following the C5a incubation period cells were washed once with cold FACS (fluorescence-activated cell sorting) buffer (phosphate buffered saline+0.5% bovine serum albumin) FITC (fluorescein isothiocyanate) mouse anti-human CD15 and PE-Cy5 (phycoerythrin-cyanine 5) mouse anti-human CD11b antibodies (Becton Dickinson) were gently mixed with the cells and allowed to incubate for 30 minutes on ice protected from the light. Cells were then washed three times with cold FACS buffer. Red blood cells (RBC) were lysed by incubating with BD FACS lysis buffer (Becton Dickinson) for 10 minutes at room temperature. Cells were pelleted and the lysing procedure was repeated until all RBCs were lysed. The remaining leukocytes were resuspended in BD lysis buffer. Samples were acquired on the LSR^11 flow cytometer and 10,000 events of the CD15+ granulocyte population were collected. The CD11b median fluorescence intensity of the CD 15+ cell population was evaluated using FACSDiva software (Becton Dickinson).

Sequence of human C5aR (P21730 whole entry): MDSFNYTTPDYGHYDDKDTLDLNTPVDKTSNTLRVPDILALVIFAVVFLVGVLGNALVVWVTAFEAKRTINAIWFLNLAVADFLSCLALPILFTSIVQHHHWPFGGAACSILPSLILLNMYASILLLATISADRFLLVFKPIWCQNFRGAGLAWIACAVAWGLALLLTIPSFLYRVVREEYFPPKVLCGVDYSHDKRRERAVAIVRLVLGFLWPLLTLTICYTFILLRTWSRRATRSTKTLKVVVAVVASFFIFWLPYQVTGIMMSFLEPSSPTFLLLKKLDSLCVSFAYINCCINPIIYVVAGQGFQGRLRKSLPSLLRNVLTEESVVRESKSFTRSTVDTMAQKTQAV

SMILES | IC50 (human C5aR) | IC50 (CD11b)
CO[C@@H]1CN(c2nc(-c3c(C)ccc4[nH]nc(C)c34)nc3c2CN(c2c(Cl)c(C4CC4)nn2C)CC3)[C@H]1C (racemic) [Example 69-I, 6-(4-chloro-3-cyclopropyl-1-methyl-1H-pyrazol-5-yl)-2-(3,5-dimethyl-1H-indazol-4-yl)-4-((trans)-methoxy-2-methylazetidin-1-yl)-5,6,7,8-tetrahydropyrido[4,3-d]pyrimidine] | 4 nM | 25 nM
Cc1ccc2[nH]nc(C)c2c1-c1nc2c(c(N3CC[C@H]4OC[C@H]4C3)n1)CN(c1c(Cl)c(C3CC3)nn1C)CC2 (racemic) [Example 69-M, (cis)-3-(6-(4-chloro-3-cyclopropyl-1-methyl-1H-pyrazol-5-yl)-2-(3,5-dimethyl-1H-indazol-4-yl)-5,6,7,8-tetrahydropyrido[4,3-d]pyrimidin-4-yl)-7-oxa-3-azabicyclo[4.2.0]octane] | 8 nM | 45 nM
CO[C@H]1CN(c2nc(-c3c(C)ccc4[nH]nc(C)c34)nc3c2CN(c2cc(C(C)C)ccc2C)CC3)C[C@@H]1N(C)C (single isomer, unassigned) [Example 65-H, (trans)-1-(2-(3,5-dimethyl-1H-indazol-4-yl)-6-(5-isopropyl-2-methylphenyl)-5,6,7,8-tetrahydropyrido[4,3-d]pyrimidin-4-yl)-4-methoxy-N,N-dimethylpyrrolidin-3-amine] | 4 nM | 56 nM
Cc1ccc(C(C)C)cc1N1CCc2nc(-c3cccc4[nH]cc(C)c34)nc(N3CC(O)C3)c2C1 [Example 17-AP, 1-(6-(5-isopropyl-2-methylphenyl)-2-(3-methyl-1H-indol-4-yl)-5,6,7,8-tetrahydropyrido[4,3-d]pyrimidin-4-yl)azetidin-3-ol] | 10 nM | 513 nM
CO[C@H]1C[C@H]2CC[C@@H](C1)N2c1nc(-c2cccc3[nH]cc(C)c23)nc2c1CN(c1cc(C(C)C)ccc1C)CC2 [Example 17-AS, 6-(5-isopropyl-2-methylphenyl)-4-((3-endo)-3-methoxy-8-azabicyclo[3.2.1]octan-8-yl)-2-(3-methyl-1H-indol-4-yl)-5,6,7,8-tetrahydropyrido[4,3-d]pyrimidine] | 46 nM | 67 nM
CO[C@H]1CCN(c2nc(-c3cccc4[nH]cc(C)c34)nc3c2CN(c2cc(C(C)C)ccc2C)CC3)C[C@@H]1C [Example 17-AY, 6-(5-isopropyl-2-methylphenyl)-4-((3S,4S)-4-methoxy-3-methylpiperidin-1-yl)-2-(3-methyl-1H-indol-4-yl)-5,6,7,8-tetrahydropyrido[4,3-d]pyrimidine] | 9 nM | 45 nM
CO[C@@H]1CCN(c2nc(-c3cccc4[nH]cc(C)c34)nc3c2CN(c2cc(Cl)ccc2C)CC3)CC1(C)C [Example 17-BK, (R)-6-(5-chloro-2-methylphenyl)-4-(4-methoxy-3,3-dimethylpiperidin-1-yl)-2-(3-methyl-1H-indol-4-yl)-5,6,7,8-tetrahydropyrido[4,3-d]pyrimidine] | 163 nM | 40 nM
Cc1ccccc1N1CCc2nc(-c3c(C)cccc3C)nc(N(C)CC(C)(C)O)c2C1 [Example 17-H, 1-((2-(2,6-Dimethylphenyl)-6-(o-tolyl)-5,6,7,8-tetrahydropyrido[4,3-d]pyrimidin-4-yl)(methyl)amino)-2-methylpropan-2-ol] | 10 nM | 300 nM
CO[C@H]1CCN(c2nc(-c3cccc4[nH]cc(C)c34)nc3c2CN(c2cc(C(C)C)ccc2C)CC3)[C@H](C)C1 [Example 17-P, 6-(5-isopropyl-2-methylphenyl)-4-((2R,4S)-4-methoxy-2-methylpiperidin-1-yl)-2-(3-methyl-1H-indol-4-yl)-5,6,7,8-tetrahydropyrido[4,3-d]pyrimidine] | 13 nM | 70 nM
Cc1ccccc1N1CCc2nc(-c3c(C)cccc3C)nc(N(C)C)c2C1 [Example 17-T, 2-(2,6-dimethylphenyl)-N,N-dimethyl-6-(o-tolyl)-5,6,7,8-tetrahydropyrido[4,3-d]pyrimidin-4-amine] | 54 nM | 451 nM
CO[C@H]1CCN(c2nc(-c3c(C)cccc3C)nc3c2CN(c2cc(C(F)(F)F)ccc2C)CC3)CC1(C)C [Example 19-AB, (S)-2-(2,6-dimethylphenyl)-4-(4-methoxy-3,3-dimethylpiperidin-1-yl)-6-(2-methyl-5-(trifluoromethyl)phenyl)-5,6,7,8-tetrahydropyrido[4,3-d]pyrimidine] | 17 nM | 26 nM
CO[C@H]1CCN(c2nc(-c3c(C(C)C)ccc4[nH]ncc34)nc3c2CN(c2cc(C4(C)COC4)ccc2C)CC3)CC1(C)C [Example 19-AC, (S)-2-(5-isopropyl-1H-indazol-4-yl)-4-(4-methoxy-3,3-dimethylpiperidin-1-yl)-6-(2-methyl-5-(3-methyloxetan-3-yl)phenyl)-5,6,7,8-tetrahydropyrido[4,3-d]pyrimidine] | 4 nM | 50 nM
CO[C@H]1CCN(c2nc(-c3c(C)cccc3C)nc3c2CN(c2cc(C(C)C)ccc2C)CC3)CC1(C)C [Example 19-AD, (S)-2-(2,6-dimethylphenyl)-6-(5-isopropyl-2-methylphenyl)-4-(4-methoxy-3,3-dimethylpiperidin-1-yl)-5,6,7,8-tetrahydropyrido[4,3-d]pyrimidine] | 2 nM | 26 nM
CO[C@@H]1CCN(c2nc(-c3c(C)ccc4[nH]nc(C)c34)nc3c2CN(c2cc(C(C)C)ccc2C)CC3)C[C@H]1C [Example 19-AF] | 1 nM | 6 nM
CO[C@@H]1CCN(c2nc(-c3c(C)cccc3Cl)nc3c2CN(c2cc(C(C)C)ccc2C)CC3)C[C@H]1C [Example 19-AH, 2-(2-chloro-6-methylphenyl)-6-(5-isopropyl-2-methylphenyl)-4-((3R,4R)-4-methoxy-3-methylpiperidin-1-yl)-5,6,7,8-tetrahydropyrido[4,3-d]pyrimidine] | 4 nM | 17 nM

More lines, in order of falling IC50 (human C5aR), values ahead:

IC50 (human C5aR) | IC50 (CD11b) | SMILES
90 nM | 2250 nM | Cc1cc(N2CCc3nc(-c4c(C)cccc4C)nc(N4CCCC(C)(C)C4)c3C2)n(C)n1 [Example 16-O, 6-(1,3-dimethyl-1H-pyrazol-5-yl)-2-(2,6-dimethylphenyl)-4-(3,3-dimethylpiperidin-1-yl)-5,6,7,8-tetrahydropyrido[4,3-d]pyrimidine]
10 nM | 42 nM | COC1CCN(c2nc(-c3cccc4[nH]cc(C)c34)nc3c2CN(c2cc(C(C)C)ccc2C)CC3)[C@H](C)C1 (stereo in doubt) [Example 17-R, 6-(5-isopropyl-2-methylphenyl)-4-((2R,4S)-4-methoxy-2-methylpiperidin-1-yl)-2-(3-methyl-1H-indol-4-yl)-5,6,7,8-tetrahydropyrido[4,3-d]pyrimidine]
4 nM | 114 nM | CO[C@H]1CCN(c2nc(-c3cccc4[nH]cc(C)c34)nc3c2CN(c2cc(C(C)C)ccc2C)CC3)CC1(C)C [Example 17-G, (S)-6-(5-Isopropyl-2-methylphenyl)-4-(4-methoxy-3,3-dimethylpiperidin-1-yl)-2-(3-methyl-1H-indol-4-yl)-5,6,7,8-tetrahydropyrido[4,3-d]pyrimidine]
4 nM | 22 nM | COc1ccc(C)c(N2CCc3nc(-c4c(C(C)C)ccc5[nH]ncc45)nc(N4CC[C@H](OC)C(C)(C)C4)c3C2)c1 [Example 19-AE, (S)-2-(5-isopropyl-1H-indazol-4-yl)-6-(5-methoxy-2-methylphenyl)-4-(4-methoxy-3,3-dimethylpiperidin-1-yl)-5,6,7,8-tetrahydropyrido[4,3-d]pyrimidine]
2 nM | 7 nM | CO[C@H]1CCN(c2nc(-c3c(C)ccc4[nH]nc(C)c34)nc3c2CN(c2cc(C(C)C)ccc2C)CC3)CC1(C)C [Example 19-AI, (S)-2-(3,5-dimethyl-1H-indazol-4-yl)-6-(5-isopropyl-2-methylphenyl)-4-(4-methoxy-3,3-dimethylpiperidin-1-yl)-5,6,7,8-tetrahydropyrido[4,3-d]pyrimidine]
1 nM | 19 nM | Cc1ccc(C(C)C)cc1N1CCc2nc(-c3c(C)ccc4[nH]nc(C)c34)nc(N3CCC3C)c2C1 (single isomer, unassigned) [Example 65-I, 2-(3,5-dimethyl-1H-indazol-4-yl)-6-(5-isopropyl-2-methylphenyl)-4-(2-methylazetidin-1-yl)-5,6,7,8-tetrahydropyrido[4,3-d]pyrimidine]
